Read-outs that look alike come from different tables or passages of the source.
Legend:
[1] = tested on: CF mice
Experimental: Mouse pups, weaned at day ˜28, had access to drinking water and solid mouse food. […] All pictures were taken at the same magnification (20× objective). […] In panels C and F, the green, yellow and black arrows point to a villus, a goblet cell and a mucus plug, respectively.
The body length (A) and weight (B) (mean±s.e.m.) of CF and heterozygous mice were determined 30, 60, and 90 days after weaning
FIGS. 7B-G, show standard Alcian Blue-stained (5 μm-thick) sections of large (FIG. 7B-D) and small (FIG. 7E-G) intestines (Alcian Blue specifically stains mucin; http://www.protocol-online.org).
Mouse pups, weaned at day ˜28, had access to drinking water and solid mouse food. […] In FIGS. 7C and 7F, the green, yellow and black arrows point to a villus, a goblet cell and a mucus plug, respectively.
The body length (A) and weight (B) (mean±s.e.m.) of CF and heterozygous mice were determined 30, 60, and 90 days after.

[2] = tested on: Calu-3 cells; experiment: Cell viability assay: H2O2 cytotoxicity in Calu-3 cells; type: cell-based, human; conditions: SCN^− alone, GO 20 mU/ml
Experimental: (§1) (the number of independent trials is indicated in parentheses).
(§2) Four types of cell, Calu-3, Min6 (58), Neuro-2A, and HAEC (Invitrogen Inc.) were plated in 48-well culture plates (3.5×10^4 to 2×10^5 per well). Twenty-four to forty-eight hours later, cells were washed with Earl's balanced salt solution (EBSS) before subsequent studies. EBSS contained: NaCl (116 mM), glucose (5.5 mM), KCl (5.4 mM), CaCl2 (1.8 mM), MgSO4 (2.2 mM), NaH2PO4 (1 mM), and NaHCO3 (26 mM); pH 7.0. […] LPO (1 U/ml) and NaSCN (100 or 400 μM) were added to protect cells from injuries caused by H2O2. For the MPO studies, cells were first incubated for one hour in EBSS containing MPO (1 U/ml). The MPO reaction was initiated by adding 10 mU/ml GO to generate H2O2, and cells were maintained in a 37° C. incubator (5% CO2) for three additional hours. […] After incubation, cells were trypsinized, pelleted, and resuspended in a phosphate buffer solution (PBS), which contains NaCl (137 mM), KCl (2.7 mM), Na2HPO4 (4.3 mM) and KH2PO4 (1.4 mM); pH 7.3. Non-viable cells were identified by staining with 0.2% Trypan blue (Invitrogen, Inc.). Both stained and unstained cells were counted with a hemocytometer in double blind experiments.

[3] = tested on: CF piglets
[4] = molecular target: MPO (Homo sapiens, UniProt P05164); conditions: 1 U/ml MPO, 100 mM Cl^−, 5 minutes
Experimental: Reaction mixtures contained MPO (1 U/ml), NaCl (100 mM), NaSCN (0-400 μM), and sodium phosphate (100 mM, pH 7.0). Reactions were initiated by adding 50 μM H2O2 to the mixture, and stopped 5 minutes later by adding 1 μM catalase to decompose remaining H2O2 to H2O and O2. Blank reactions contained no H2O2. The concentrations of OCl^− and OSCN^−were determined using the taurine chloramine assay. OCl^− and OSCN^− react with taurine to form taurine chloramine. The latter oxidizes yellow 5-thio-2-nitrobenzoic acid (ε412=14,100 M^−1 cm^−1) to colorless 5,5′-dithiobis-2-nitrobenzoic acid. The drop in absorbance at 412 nm (after subtracting the blank) reflects the total concentration of OCl^− plus OSCN^− produced. […] Methionine was added immediately after the addition of catalase but 5 minutes before the taurine chloramine assay. This five minute interval allowed methionine to reduce OCl^−. Unless specified otherwise, all reagents were purchased from Sigma-Aldrich.

[5] = non-enzymatic reaction; cited from earlier work
[6] = tested on: Min6 cells; conditions: 400 μM SCN^−; GO 10 mU/ml, MPO 1 U/ml
Experimental: as §1, §2

[7] = tested on: human aortic endothelial cells (HAEC); conditions: 400 μM SCN^−; GO 5 mU/ml, MPO 1 U/ml
Experimental: as §1, §2

[8] = tested on: Neuro-2A cells; conditions: GO 10 mU/ml, MPO 1 U/ml
Experimental: as §1, §2

[9] = tested on: healthy volunteers; conditions: Phase 1 single-dose; cited from earlier work
[10] = molecular target: T1, CFTR (Homo sapiens, UniProt P13569, G551D); conditions: CF patients with at least one copy of the G551D mutation; Phase II; cited from earlier work
T1 construct: endogenous in cells; host or cells: CF patients (nasal epithelium, sweat glands, lungs)

[11] = tested on: CF patients; conditions: high doses; cited from earlier work
[12] = 1 mM thiocyanate in drinking water, 30, 60, 90 days after weaning
[13] = single dose of thiocyanate (1 mM)

Chain of MPO (P05164 49-745, species assumed): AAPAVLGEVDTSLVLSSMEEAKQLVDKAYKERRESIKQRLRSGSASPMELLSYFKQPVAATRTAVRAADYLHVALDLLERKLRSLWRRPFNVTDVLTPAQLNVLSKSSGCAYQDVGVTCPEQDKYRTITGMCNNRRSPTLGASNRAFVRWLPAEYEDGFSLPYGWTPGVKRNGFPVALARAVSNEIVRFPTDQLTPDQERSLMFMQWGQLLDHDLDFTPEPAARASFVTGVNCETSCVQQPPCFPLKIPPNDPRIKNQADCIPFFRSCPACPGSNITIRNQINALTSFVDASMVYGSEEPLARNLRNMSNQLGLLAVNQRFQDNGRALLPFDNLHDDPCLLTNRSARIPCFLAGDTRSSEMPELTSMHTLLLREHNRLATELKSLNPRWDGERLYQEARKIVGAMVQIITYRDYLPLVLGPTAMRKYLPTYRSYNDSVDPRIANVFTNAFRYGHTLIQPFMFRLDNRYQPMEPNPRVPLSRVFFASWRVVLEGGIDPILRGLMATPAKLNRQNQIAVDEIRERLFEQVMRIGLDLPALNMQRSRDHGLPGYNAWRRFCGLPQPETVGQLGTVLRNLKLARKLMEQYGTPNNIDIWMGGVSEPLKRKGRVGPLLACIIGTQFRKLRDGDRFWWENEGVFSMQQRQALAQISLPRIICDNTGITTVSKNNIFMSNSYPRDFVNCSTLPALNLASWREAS
T1 sequence (P13569 whole entry G551D): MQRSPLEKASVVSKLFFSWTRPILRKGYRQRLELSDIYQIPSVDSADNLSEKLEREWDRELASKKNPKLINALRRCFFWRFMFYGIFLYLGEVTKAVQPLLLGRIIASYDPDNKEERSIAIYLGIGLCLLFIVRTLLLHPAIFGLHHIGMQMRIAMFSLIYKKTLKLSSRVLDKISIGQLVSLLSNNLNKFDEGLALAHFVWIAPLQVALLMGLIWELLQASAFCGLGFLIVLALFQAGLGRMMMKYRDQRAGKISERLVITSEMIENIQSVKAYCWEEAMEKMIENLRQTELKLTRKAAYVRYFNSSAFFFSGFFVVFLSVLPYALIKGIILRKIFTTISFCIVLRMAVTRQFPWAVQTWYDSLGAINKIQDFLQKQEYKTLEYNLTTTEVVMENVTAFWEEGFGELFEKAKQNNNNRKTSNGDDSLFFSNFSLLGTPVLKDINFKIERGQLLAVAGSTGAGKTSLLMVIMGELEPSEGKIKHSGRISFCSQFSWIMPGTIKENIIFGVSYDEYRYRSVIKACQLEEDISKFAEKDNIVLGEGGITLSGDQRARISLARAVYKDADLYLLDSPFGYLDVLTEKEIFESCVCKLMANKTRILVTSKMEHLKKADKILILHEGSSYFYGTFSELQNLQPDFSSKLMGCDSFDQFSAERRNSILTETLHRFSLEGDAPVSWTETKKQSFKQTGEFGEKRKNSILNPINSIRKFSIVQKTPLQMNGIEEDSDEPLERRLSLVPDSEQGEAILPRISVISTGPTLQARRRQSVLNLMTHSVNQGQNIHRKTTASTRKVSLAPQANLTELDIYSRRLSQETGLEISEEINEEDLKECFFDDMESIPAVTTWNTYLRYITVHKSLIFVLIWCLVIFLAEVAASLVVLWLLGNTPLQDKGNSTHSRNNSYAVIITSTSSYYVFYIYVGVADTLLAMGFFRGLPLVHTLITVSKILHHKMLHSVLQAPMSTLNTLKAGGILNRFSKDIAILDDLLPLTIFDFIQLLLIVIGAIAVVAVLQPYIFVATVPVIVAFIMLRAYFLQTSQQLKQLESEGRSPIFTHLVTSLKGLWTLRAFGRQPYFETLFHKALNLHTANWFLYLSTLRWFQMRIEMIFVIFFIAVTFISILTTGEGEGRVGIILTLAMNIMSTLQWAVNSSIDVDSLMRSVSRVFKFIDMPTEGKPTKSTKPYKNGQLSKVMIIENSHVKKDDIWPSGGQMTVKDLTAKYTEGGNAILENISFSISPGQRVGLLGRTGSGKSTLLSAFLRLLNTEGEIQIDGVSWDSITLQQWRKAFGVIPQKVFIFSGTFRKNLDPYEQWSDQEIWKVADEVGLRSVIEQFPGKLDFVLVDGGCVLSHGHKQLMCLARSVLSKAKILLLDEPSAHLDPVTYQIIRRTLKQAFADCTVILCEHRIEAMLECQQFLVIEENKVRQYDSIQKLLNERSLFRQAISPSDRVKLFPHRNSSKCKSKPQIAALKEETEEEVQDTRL

N#CS [SCN^−, thiocyanate]
CF mice survived beyond 90 days ([1]; 1 mM thiocyanate in drinking water (mothers before weaning, pups after weaning)): 10 of the 15 | body length of CF mice [1, 12]: normalizes | body weight of CF mice [1, 12]: normalizes | survival of CF mice ([1]; oral thiocyanate, 1 mM in drinking water): prolongs the survival | protection against H2O2 cell injury ([2]; 100 μM): Neither SCN^− (100 or 400 μM), nor LPO (1 U/ml) alone provided any significant protection | protection against H2O2 cell injury ([2]; 400 μM): Neither SCN^− (100 or 400 μM), nor LPO (1 U/ml) alone provided any significant protection | protection for CF piglets ([3]; given to pig mothers during pregnancy and to piglets after birth, up to 20 mg/kg daily, with or without iodine): improved protection | effect on meconium in CF piglets [3, 13]: loosening meconium | survival of CF piglets [3, 13]: does not survive them | inhibition of MPO-catalyzed production of OCl^− ([4]; 10 μM SCN^−): inhibited only slightly, if at all | inhibition of MPO-catalyzed production of OCl^− ([4]; 50 μM SCN^−): partially inhibited | production of OSCN^− and OCl^− with increasing SCN^− concentration [4]: boosted the production of OSCN^− but depressed that of OCl^− | inhibition of MPO-catalyzed production of OCl^− ([4]; 100-400 μM SCN^−): inhibited almost completely | second-order rate constant of oxidation by OCl^− to OSCN^− [5]: 2.3e+07 M⁻¹ s⁻¹ | protection against MPO activity [6]: virtually fully protected | protection against MPO activity [7]: virtually fully protected | protection against MPO activity ([8]; 100 μM SCN^−): virtually fully protected | protection against MPO activity ([8]; 400 μM SCN^−): virtually fully protected

O=C(O)c1cccc(-c2noc(-c3ccccc3F)n2)c1 [Ataluren]
safety, oral availability and tolerability [9]: safe, orally available and well tolerated

CC(C)(C)c1cc(C(C)(C)C)c(NC(=O)c2c[nH]c3ccccc3c2=O)cc1O [VX-770]
biological measures of CFTR function (nasal potential difference and sweat chloride) [10]: improvements | clinical measures of pulmonary health (FEV1) [10]: improvements

CC(C)Cc1ccc(C(C)C(=O)O)cc1 (stereo not shown) [ibuprofen]
CF disease progression [11]: slow disease progression

Source: patent publication US20130004477A1, “Methods for Treating Inflammation and Oxidative Stress Related Diseases” (priority 2009, published 2013)
